This passage reports melting point results from the Bradley open melting point set (2014).

Each structure is given as a SMILES string. Where “and” joins values, the source holds several entries; their conditions need not be identical. Equal values may be shown once.

As for `C(#Cc1ccccc1)c1ccccc1` [1,1'-Ethyne-1,2-diyldibenzene], the melting point was 60 °C.

In the case of `Cc1ccc(C(=O)O)cc1Cl` [3-chloro-4-methylbenzoic acid], the melting point came out at 199 °C. Consider `O=C(O)C1=Cc2cc(Cl)ccc2OC1` [6-chloro-2h-chromene-3-carboxylic acid], for which the melting point was found to be 243 °C. Compound `OB(O)c1ccc(C2CCCCC2)cc1` [4-cyclohexylbenzeneboronic acid] had a melting point of 220 °C. With `CC(=O)/C(=N/Nc1cccc(C(F)(F)F)c1)C(=O)C(F)(F)F`, the melting point turned out to be 86 °C. With `O=[N+]([O-])c1ccc(/C=C/c2ccccc2[N+](=O)[O-])cc1` [1-nitro-2-[(E)-2-(4-nitrophenyl)ethenyl]benzene], the melting point amounted to 139 °C.

Compound `c1ccc2c(P(c3cccc4ccccc34)c3cccc4ccccc34)cccc2c1` [tri(1-naphthyl)phosphine] returned a melting point of 267 °C. In turn, `C[C@]12CCC(=O)C=C1CC[C@@H]1[C@@H]2[C@@H](O)C[C@@]2(C)[C@H]1CC[C@]2(O)C(=O)CO` [hydrocortisone] gave a melting point of 214 °C. Consider `CC(=O)Oc1ccc(C(C)=O)cc1` [p-acetoxy_acetophenone], for which the melting point was determined as 54 °C.

For `CCCCC1C(=O)N(c2ccccc2)N(c2ccccc2)C1=O` [Phenylbutazone], the melting point was 107 °C. In turn, `COc1ccc(SCC(=O)O)cc1OC` [(3,4-dimethoxyphenylthio)acetic acid] showed a melting point of 102 °C.

Turning to `O=C1CCC(c2ccc(Br)cc2)=NN1` [6-(4-bromophenyl)-4,5-dihydro-3(2h)-pyridazinone], the melting point was determined as 169 °C. `O=c1[nH][nH]c(=O)n1-c1ccccc1` [4-phenylurazole] came in with a melting point of 208 °C. For `O=C(CBr)c1cccs1` [2-(bromoacetyl)thiophene], the melting point was found to be 31 °C. The compound `CCCCCC(=O)OC` [methyl hexanoate] came in with a melting point of -71 °C. The compound `O=[N+]([O-])c1cc[n+]([O-])c(Br)c1` [2-bromo-4-nitropyridine n-oxide] showed a melting point of 145 °C. `CC(=O)Oc1ccc2c(C)cc(=O)oc2c1` [4-methylumbelliferyl acetate] came in with a melting point of 150 °C. `Cl/C(Cl)=C/C3C(C(=O)OCc2cccc(Oc1ccccc1)c2)C3(C)C` (centres undefined) had a melting point of 34 °C. `O=C1CSc2ccccc2N1` [(2h)1,4-benzothiazin-3(4h)-one]: the melting point came out at 177 °C. Regarding `O=S(=O)(c1ccc(Cl)cc1)c1ccc(Cl)cc1` [bis(4-chlorophenyl) sulfone], the melting point came to 149 °C. The compound `O=C(O)c1cc(Br)cc(Br)c1` [3,5-dibromobenzoic acid] displayed a melting point of 220 °C. `COc1ccc2c(c1)CC2=O` [3-methoxybicyclo[4.2.0]octa-1,3,5-trien-7-one]: the melting point was found to be 52 °C. `COc1cccc(-c2nnn[nH]2)c1` [5-(3-methoxyphenyl)-1h-tetrazole] gave a melting point of 157 °C. `c1ccc(C(c2ccccc2)c2ccccc2)cc1` [triphenylmethane] displayed a melting point of 94 °C. For the compound `COc1cc(N)c(Cl)cc1C(=O)NC1CCN(Cc2ccccc2)CC1` [clebopride], the melting point stood at 194 °C.

In turn, `Cc1cc(O)ccc1O` [2-Methylbenzene-1,4-diol] came in with a melting point of 129 °C. In turn, `COc1ccc(CCCC(=O)O)cc1` [4-(4-methoxyphenyl)butanoic acid] registered a melting point of 59 °C. Then `CCCCCCCc1ccc(O)cc1` [4-n-heptylphenol], with 27 °C.

As for `Cc1ncc(CO)c(C=O)c1O` [Pyridoxal], the melting point came to 172 °C. `CCOC(=O)c1cc(C(=O)OCC)c([N+](=O)[O-])cc1[N+](=O)[O-]` [diethyl 4,6-dinitrobenzene-1,3-dicarboxylate] came in with a melting point of 124 °C. In turn, `OC[C@@H](O)[C@H]1O[C@@H]2O[C@H](C(Cl)(Cl)Cl)O[C@@H]2[C@H]1O` [1,2-O-[(1R)-2,2,2-Trichloroethylidene]-alpha-D-glucofuranose] displayed a melting point of 187 °C. The compound `ClCc1c2ccccc2cc2ccccc12` [9-(chloromethyl)anthracene] registered a melting point of 140 °C. `CC(=O)Nc1ccccc1C(=O)O` [2-acetamidobenzoic acid] registered a melting point of 186 °C. `O=C1CCCCCCC1` [cyclooctanone] returned a melting point of 40 °C. Take `CC(=O)OCC(=O)[C@@]1(O)CC[C@H]2[C@@H]3CCC4=CC(=O)CC[C@]4(C)[C@H]3C(=O)C[C@@]21C` [cortisone acetate]: the melting point worked out at 222 °C. `O=C\1\C=C5/[C@@](/C=C/1)(C)[C@]2(F)[C@H]([C@H]3[C@](C[C@@H]2O)([C@@]4(OC(O[C@@H]4C3)(C)C)C(=O)CO)C)CC5` [triamcinolone acetonide] showed a melting point of 293 °C.

In turn, `O=S(=O)(Cl)c1cccs1` [thiophene-2-sulfonyl chloride] yielded a melting point of 30 °C.

Consider `C1CCSC1` [tetrahydrothiophene], for which the melting point was -96 °C. In turn, `OB(O)c1ccc(Br)c(F)c1F` [4-bromo-2,3-difluorobenzeneboronic acid] gave a melting point of 225 °C. Turning to `CCCCCCCCCCCCCCCCCCCCCCCCCCCCCCCCCCCCCCCCCCCC` [tetratetracontane], the melting point came out at 88 °C. `OO` [Hydrogen peroxide] showed a melting point of -40 °C. Compound `CN(CCO)CCO` [N-methyldiethanolamine] had a melting point of -21 °C. Then `c1ccc(CCc2ccccc2)cc1` [bibenzyl], with 52 °C; and `Cc1cc[n+]([O-])cc1` [4-picoline n-oxide], with 184 °C; and `c1ccc2nc3ccccc3nc2c1` [Phenazine], with 158 °C. As for `CN(C)c1ccc(C=O)cc1` [4-dimethylaminobenzaldehyde], the melting point came out at 74.5 °C. Compound `O=C(NC/1=N/C(=O)c2ncn(c2N\1)COCCO)C` [N-Acetylacyclovir] registered a melting point of 217 °C. Turning to `COc1ccc(-c2csc(C(C#N)=Cc3cccs3)n2)cc1`, the melting point came to 141 °C. As to `O=C1OC(Sc2ccccc2)c2ccccc21` (centres undefined) [3-(phenylsulfanyl)-2-benzofuran-1(3H)-one], the melting point turned out to be 103 °C. Then `O=C(O)c1ccccc1` [benzoic acid], with 122 °C; and `COc1ccc2[nH]c(S(=O)Cc3ncc(C)c(OC)c3C)nc2c1` (centres undefined) [omeprazole], with 156 °C; and `CC(=O)S` [thioacetic acid], with -17 °C. Consider `O=[N+]([O-])c1c(Cl)c(Cl)c(Cl)c(Cl)c1Cl` [pentachloronitrobenzene], for which the melting point came to 144 °C. Then `C/C(=C(/C#N)c1nc2ccccc2s1)c1cc2ccccc2oc1=O`, with 156 °C; and `CCOC(O)C(Cl)(Cl)Cl` (centres undefined) [2,2,2-trichloro-1-ethoxyethanol], with 50 °C; and `c1ccc2c(c1)oc1ccccc12` [Dibenzofuran], with 82 °C. On to `CC(C)C(=O)O` [2-methylpropanoic_acid], for which the melting point is -46 °C.

The compound `CC12CCC(C(O)=C/C1=N\Nc1ccccc1)C2(C)C` (centres undefined) yielded a melting point of 182 °C. Next, `CCOC(=O)/C=C/c1cccc(/C=C/C(=O)OCC)c1` [diethyl (2E,2'E)-3,3'-benzene-1,3-diylbisprop-2-enoate]: 54 °C; `COc1cc(O)cc(OC)c1OC` [3,4,5-trimethoxyphenol]: 146 °C; `[2H]c1c([2H])c([2H])c2c(c1[2H])c([2H])c([2H])c1c3c([2H])c([2H])c([2H])c([2H])c3c([2H])c([2H])c21` [(~2~H_12_)Chrysene]: 255 °C.

The compound `Cl/C=C/Cl` [(E)-1,2-Dichloroethene] gave a melting point of -50 °C. Next, `Oc1c(Cl)cccc1Cl` [2,6-Dichlorophenol]: 68.5 °C; `Oc1c(F)cc(F)cc1F` [2,4,6-trifluorophenol]: 50 °C; `CC(C)CC1=C/C(=C/c2ccc(-c3ccccc3)o2)C(=O)O1`: 76 °C. In turn, `Cn1c(=O)c2nc[nH]c2n(C)c1=O` [Theophylline] had a melting point of 274 °C. The compound `CCOc1ccc(B(O)O)cn1` [6-ethoxypyridine-3-boronic acid] had a melting point of 103 °C. Next, `O=Cc1ccc(I)cc1` [p-iodobenzaldehyde]: 78 °C; `c1ccc2c(c1)ccc1c3ccccc3ccc21` [Chrysene]: 253 °C.

`CCC(C)(CO)CO` [2-ethyl-2-methyl-1,3-propanediol] had a melting point of 44 °C.

Regarding `COC(=O)c1ccccc1[N+](=O)[O-]` [methyl 2-nitrobenzoate], the melting point is -13 °C. Then `C=CCCCC` [1-hexene], with -140 °C; and `COc1ccc(/C=C/[N+](=O)[O-])cc1OC` [3,4-dimethoxy-beta-nitrostyrene], with 140 °C. `FC(F)(F)c1ccccc1Cl` [2-chlorobenzotrifluoride] had a melting point of -6 °C. Compound `O=C(O)c1cccnc1Oc1ccc(F)cc1` [2-(4-fluorophenoxy)nicotinic acid] showed a melting point of 184 °C. With `COC(C)(C)OC` [2,2-Dimethoxypropane], the melting point is -47 °C. `CC(=O)c1ccc(O)cc1` [4-hydroxyacetophenone] registered a melting point of 108 °C. In the case of `COc1ccc(C(=O)c2ccc(OC)cc2OC)cc1` [2,4,4'-trimethoxybenzophenone], the melting point came out at 72 °C. Then `O=C(/C=C/c1ccc(-c2ccc(Cl)cc2)o1)c1ccccc1` [(2E)-3-[5-(4-Chlorophenyl)-2-furyl]-1-phenylprop-2-en-1-one], with 127 °C. Regarding `NC(=O)c1cc(F)ccc1F` [2,5-difluorobenzamide], the melting point worked out at 112 °C. Then `N#Cc1coc2ccccc2c1=O` [chromone-3-carbonitrile], with 175 °C; and `CCOP(=S)(OCC)Oc1nc(Cl)c(Cl)cc1Cl` [O,O-Diethyl O-(3,5,6-trichloropyridin-2-yl) phosphorothioate], with 42.5 °C. Then `COc1cc(/C=C/C(=O)c2ccccc2O)ccc1O`, with 129 °C (2×) and 128 °C.

Compound `c1ccc2c(c1)c1ccccc1c1ccccc21` [triphenylene] came in with a melting point of 199 °C.

One may read the melting point as the temperature, or range, at which the solid turns liquid.
